Reference: patent US20070010671A1, “Novel quinazoline derivatives and methods of treatment related to the use thereof” (priority 2003, published 2007)

These molecules were tested against MCH receptor (Homo sapiens, UniProt Q99705) (assay: High throughput functional screening FLIPR/FDSS6000: inhibition of MCH-evoked intracellular Ca2+ changes). Conditions: class by percent of control at 10^-7 M or IC50.
Assay type: cell-based
Method in brief: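 Antagonism was measured as inhibition of calcium responses to 50 nM MCH, monitored 290 s at ex 488/em 530 nm on FLIPR or FDSS6000. Beforehand, cells bearing a constitutively active MCH receptor received Fluo4-AM (4 μM, 1 h, 37 °C) with probenecid, and test compound for 3 min.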

Compound	class
CN(C)c1nc(N[C@H]2CC[C@@H](CNC(=S)Nc3ccc(Cl)c(C(F)(F)F)c3)CC2)nc2ccccc12 [compound 659]	3 (Class 3: The value of percent of control at 10^−7 M was more than 60% or the value of IC50 was more than 200 nM.)
CN(C)c1nc(N[C@H]2CC[C@@H](CNC(=S)Nc3ccc(F)c(C(F)(F)F)c3)CC2)nc2ccccc12 [compound 660]	3 (Class 3: The value of percent of control at 10^−7 M was more than 60% or the value of IC50 was more than 200 nM.)
CN(C)c1nc(N[C@H]2CC[C@@H](CNC(=S)Nc3ccc(I)cc3)CC2)nc2ccccc12 [compound 661]	3 (Class 3: The value of percent of control at 10^−7 M was more than 60% or the value of IC50 was more than 200 nM.)
Cc1ccc(Cl)cc1NC(=S)NC[C@H]1CC[C@@H](Nc2nc(N(C)C)c3ccccc3n2)CC1 [compound 662]	2 (Class 2: The value of percent of control at 10^−7 M was from 40% to 60% or the value of IC50 was from 50 nM to 200 nM.)
CN(C)c1nc(N[C@H]2CC[C@@H](CNC(=S)NC3C[C@@H]4CC[C@H]3C4)CC2)nc2ccccc12 (stereo partly drawn) [compound 663, N-[(1S,4R)-bicyclo[2.2.1]hept-2-yl]-N′-[(cis-4-{[4-(dimethylamino)quinazolin-2-yl]amino}cyclohexyl)methyl]thiourea]	2 (Class 2: The value of percent of control at 10^−7 M was from 40% to 60% or the value of IC50 was from 50 nM to 200 nM.)
CN(C)c1nc(N[C@H]2CC[C@@H](CNC(=S)Nc3ccc(NC(=O)OC(C)(C)C)cc3)CC2)nc2ccccc12 [compound 664]	3 (Class 3: The value of percent of control at 10^−7 M was more than 60% or the value of IC50 was more than 200 nM.)
COc1ccc(CCNC(=S)NC[C@H]2CC[C@@H](Nc3nc(N(C)C)c4ccccc4n3)CC2)cc1OC [compound 665, N-[2-(3,4-dimethoxyphenyl)ethyl]-N′-[(cis-4-{[4-(dimethylamino)quinazolin-2-yl]amino}cyclohexyl)methyl]thiourea]	2 (Class 2: The value of percent of control at 10^−7 M was from 40% to 60% or the value of IC50 was from 50 nM to 200 nM.)
CN(C)c1nc(N[C@H]2CC[C@@H](CNC(=S)NCCc3ccc(Cl)cc3)CC2)nc2ccccc12 [compound 666]	3 (Class 3: The value of percent of control at 10^−7 M was more than 60% or the value of IC50 was more than 200 nM.)
CN(C)c1nc(N[C@H]2CC[C@@H](CNC(=S)Nc3cc(Cl)c(Cl)c(Cl)c3Cl)CC2)nc2ccccc12 [compound 667]	3 (Class 3: The value of percent of control at 10^−7 M was more than 60% or the value of IC50 was more than 200 nM.)
CN(C)c1nc(N[C@H]2CC[C@@H](CNC(=S)Nc3cc(Cl)c(Cl)cc3Cl)CC2)nc2ccccc12 [compound 668]	3 (Class 3: The value of percent of control at 10^−7 M was more than 60% or the value of IC50 was more than 200 nM.)
CN(C)c1nc(N[C@H]2CC[C@@H](CNC(=S)Nc3c(Cl)cc(Cl)cc3Cl)CC2)nc2ccccc12 [compound 670, N-[(cis-4-{[4-(dimethylamino)quinazolin-2-yl]amino}cyclohexyl)methyl]-N′-(2,4,6-trichlorophenyl)thiourea]	2 (Class 2: The value of percent of control at 10^−7 M was from 40% to 60% or the value of IC50 was from 50 nM to 200 nM.)
CN(C)c1nc(N[C@H]2CC[C@@H](CNC(=S)Nc3c(F)cc(F)cc3F)CC2)nc2ccccc12 [compound 671]	3 (Class 3: The value of percent of control at 10^−7 M was more than 60% or the value of IC50 was more than 200 nM.)
Cc1cc(C)c(NC(=S)NC[C@H]2CC[C@@H](Nc3nc(N(C)C)c4ccccc4n3)CC2)c(C)c1 [compound 672, N-[(cis-4-{[4-(dimethylamino)quinazolin-2-yl]amino}cyclohexyl)methyl]-N′-mesitylthiourea]	2 (Class 2: The value of percent of control at 10^−7 M was from 40% to 60% or the value of IC50 was from 50 nM to 200 nM.)
Cc1ccc(NC(=S)NC[C@H]2CC[C@@H](Nc3nc(N(C)C)c4ccccc4n3)CC2)c(C)c1 [compound 673]	3 (Class 3: The value of percent of control at 10^−7 M was more than 60% or the value of IC50 was more than 200 nM.)
